Paper PMC6510928, “Characterisation of the Ral GTPase inhibitor RBC8 in human and mouse platelets” (Cellular Signalling, 2019)

Columns and labels:
[1] = target: T1, RalA (Homo sapiens, UniProt P11233); test: GST-RalBP1 pulldown of RalA-GTP from RBC8-treated, CRP-stimulated human platelets, immunoblot densitometry; type: cell-based
T1 sequence (P11233 1-203): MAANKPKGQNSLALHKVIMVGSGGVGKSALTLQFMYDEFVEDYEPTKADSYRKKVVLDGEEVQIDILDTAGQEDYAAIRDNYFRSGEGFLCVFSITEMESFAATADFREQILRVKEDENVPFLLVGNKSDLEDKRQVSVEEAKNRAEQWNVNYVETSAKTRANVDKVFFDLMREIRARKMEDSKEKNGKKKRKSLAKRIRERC

[2] = target: T2, RalB (Homo sapiens, UniProt P11234); test: GST-RalBP1 pulldown of RalB-GTP from RBC8-treated, CRP-stimulated human platelets, immunoblot densitometry; type: cell-based
T2 sequence (P11234 1-203): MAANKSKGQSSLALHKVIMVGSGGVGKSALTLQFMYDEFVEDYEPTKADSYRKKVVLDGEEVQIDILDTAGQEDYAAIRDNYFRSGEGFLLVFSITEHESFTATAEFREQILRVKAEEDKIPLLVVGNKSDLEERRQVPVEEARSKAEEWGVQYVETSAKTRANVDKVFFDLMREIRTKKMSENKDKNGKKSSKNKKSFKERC

`COc1ccc(OC)c(C2C(C#N)=C(N)Oc3n[nH]c(-c4ccc5ccccc5c4)c32)c1` (centres unmarked) [RBC8] was tested, and the IC50 [1] was 2200 nM and the IC50 [2] was 2300 nM.
